In US11517629B2, “Methods of treating cells containing fusion genes by genomic targeting” (UNIVERSITY OF PITTSBURGH—OF THE COMMONWEALTH SYSTEM OF …, priority 2016, dated 2022):

Assays:
[1] = test system: DU145 BP; assay: TUNEL assay of xenografted cancers; assay type: in vivo, human; details: DU145 BP clone containing TMEM135-CCDC67 breakpoint; FIG. 16B, treated with Ad-TC
Protocol: (§1) FIG. 16A-B. (A) Expression of Cas9^D10A and HSV1-tk in HUH7 or HEP3B tumors treated with Ad-TC or pAD5-Cas9^D10A-gRNAMAN2A1^int13-gRNAFER^int14/pAD-MAN2A1^int13-EGFP-tk-FER^int14 (Ad-MF). Green arrows indicate unstained mouse stromal cells. (B) Genome therapy induced apoptosis of xenografted cancers that contain fusion gene breakpoints. Terminal deoxynucleotidyl transferase (TdT) dUTP Nick-End Labeling (TUNEL) assays were performed on the PC3 BP, DU145 BP, PC3 CMV, DU145 CMV, or HUH7 xenografted cancers treated with either Ad-TC or Ad-MF.
(§2) Immunohistochemistry. Immunohistochemistry was performed as described previously 6 with antibodies specific for HSV-1 TK (1:100 dilution) or for Cas9 (1:100 dilution). The antibody was omitted in negative controls. The sections were then incubated with horseradish peroxidase conjugated anti-rabbit IgG for 30 minutes at room temperature (ABC kit from Vector Labs, Inc). Slides were then exposed to a 3,3′-diaminobenzidine solution to visualize immunostaining. Counterstaining was performed by incubating the slides in 1% Hematoxylin solution for 2 minutes at room temperature. The slides were then rinsed briefly in distilled water to remove excessive staining. The procedure of TUNEL assays is similar to that previously described (13).

[2] = test system: PC3 BP; assay: TUNEL assay of xenografted cancers; assay type: in vivo, human; details: PC3 BP clone containing TMEM135-CCDC67 breakpoint; FIG. 16B, treated with Ad-TC
Protocol: as §1, §2

Nc1nc(O)c2ncn(COC(CO)CO)c2n1 [ganciclovir]
cell death observed by tunel staining [1]: significant cell death
cell death observed by tunel staining [2]: significant cell death
